Laboratory results published in paper PMC6100043, “Development of Thiophene Compounds as Potent Chemotherapies for the Treatment of Cutaneous Leishmaniasis Caused by Leishmania major” (Molecules : A Journal of Synthetic Chemistry and Natural …, 2018).
Read-outs that look alike come from different tables or passages of the source.

How the values were obtained:
[1] = tested on: L. major-luc promastigotes; test: Luciferase assay, viability of L. major-luc promastigotes; format: cell-based, Leishmania major; conditions: 72 h at 28 °C, 2 × 10^6 promastigotes per mL, luciferase activity
[2] = Mammalian cell cytotoxicity (alamarBlue for 5A; PI/Hoechst HCIA for 5D, 5E) in IPΦ; conditions: BALB/c, mouse, intraperitoneal mouse macrophages (IPΦ)
[3] = tested on: intraperitoneal mouse macrophages (IPΦ); test: as above; conditions: for S.I. IPΦ (CC50 mammalian cells)/(EC50 in L. major-luc promastigotes): IPΦ vs L. major-luc promastigotes
[4] = Mammalian cell cytotoxicity (alamarBlue for 5A; PI/Hoechst HCIA for 5D, 5E) in LLC-MK2; conditions: rhesus monkey, LLC-MK2 kidney epithelial cells
[5] = tested on: monkey kidney cells (LLC-MK2); test: as above; conditions: for S.I. LLC-MK2 (CC50 mammalian cells)/(EC50 in L. major-luc promastigotes): LLC-MK2 vs L. major-luc promastigotes
[6] = tested on: L. major intracellular amastigotes; test: High-Content Imaging Assay, proliferation of intracellular amastigotes in infected IPΦ; format: cell-based, Leishmania major; conditions: for number of infected cells compared to control treated with 1% DMSO: 2.5 µM, infected IPΦ; for number of infected cells compared to control treated with 1% DMSO / inhibition at 0.625 µM: 48 h; for inhibition at 0.625 µM: Leishmania major, read-out: inhibition of the proliferation of intracellular amastigotes
[7] = tested on: L. major promastigotes; test: Measurement of reactive oxygen species levels (H2DCFDA); format: cell-based, Leishmania major; conditions: 5D at EC50, 24 h incubation + 7 h reading (31 h), H2DCFDA 10 µM
[8] = design: method as in PMID 25365529, PMID 26230675; conditions: cited from earlier work
[9] = read-out: EC50 Leishmania major-luc promastigotes

Molecule	EC50 ([1]; Leishmania major, 72 h) [µM]	CC50 at 48 h [2] [µM]	S.I. IPΦ (CC50 mammalian cells)/(EC50 in L. major-luc promastigotes) [3]	CC50 at 72 h [4] [µM]	further results
CCOC(=O)c1c(NC(=O)c2ccc(C(F)(F)F)cc2)sc2c1CC(C)(C)NC2(C)C [Compound 5A, Ethyl 5,5,7,7-tetramethyl-2-(4-(trifluoromethyl)benzamido)-4,5,6,7-tetrahydrothieno[2,3-c]pyridine-3-carboxylate]	~0.34	~10.4	30.50	17.7 ± 1.12	EC50 [1, 9]: ~0.341 µM; cytotoxicity for IPΦ ([3]; at 5 and 10 µM, in HCIA of infected IPΦ, 48 h): cytotoxic; S.I. LLC-MK2 (CC50 mammalian cells)/(EC50 in L. major-luc promastigotes) [5]: 52.85
CCOC(=O)c1c(NC(=O)c2ccccc2C(F)(F)F)sc2c1CC(C)(C)NC2(C)C [Compound 5B, Ethyl-5,5,7,7-tetramethyl-2-(2-(trifluoromethyl)benzamido)-4,5,6,7-tetrahydrothieno[2,3-c]pyridine-3-carboxylate]	5.98 ± 1.72				
CCOC(=O)c1c(NC(=O)c2cccc(C(F)(F)F)c2F)sc2c1CC(C)(C)NC2(C)C [Compound 5D, Ethyl-2-(2-fluoro-3-(trifluoromethyl)benzamido)-5,5,7,7-tetramethyl-4,5,6,7-tetrahydrothieno[2,3-c]-pyridine-3-carboxylate]		27.9 ± 3.19	310	> 80	number of infected cells compared to control treated with 1% DMSO [6]: reduced number of infected cells; inhibition at 0.625 µM [6]: > 75%; decrease of the proliferation of the parasite (intracellular amastigotes) ([6]; infected murine macrophages, concentration not given): 80%; ROS levels, fold higher compared to vehicle control 1% DMSO [7]: 14.5 fold; selectivity compared with parent compound 5A ([3]; fold higher than 5A): 10 fold; toxicity against LLC-MK2 ([5]; at concentrations up to 80 µM, 72 h): did not display perceptible toxicity
CCOC(=O)c1c(NC(=O)c2ccc(F)c(C(F)(F)F)c2)sc2c1CC(C)(C)NC2(C)C [Compound 5E, Ethyl-2-(4-fluoro-3-(trifluoromethyl)benzamido)-5,5,7,7-tetramethyl-4,5,6,7-tetrahydrothieno[2,3-c]-pyridine-3-carboxylate]	0.78 ± 0.11	16.6 ± 1.52	21.27	80 ± 4.45	number of infected cells compared to control treated with 1% DMSO [6]: reduced number of infected cells; inhibition at 0.625 µM [6]: > 50%; S.I. LLC-MK2 (CC50 mammalian cells)/(EC50 in L. major-luc promastigotes) [5]: 102.56
CC1(C)Cc2c(sc(NC(=O)c3cc(Cl)ccc3C(F)(F)F)c2C(=O)O)C(C)(C)N1 [Compound 5F, 2-(5-chloro-2-(trifluoromethyl)benzamido)-5,5,7,7-tetramethyl-4,5,6,7-tetrahydrothieno[2,3-c]pyridine-3-carboxylic acid]	> 12.5				
CC1(C)Cc2c(sc(NC(=O)c3ccccc3C(F)(F)F)c2C(=O)O)C(C)(C)N1 [Compound 5G, 5,5,7,7-tetramethyl-2-(2-(trifluoromethyl)benzamido)-4,5,6,7-tetrahydrothieno[2,3-c]pyridine-3-carboxylic acid]	> 12.5				
COC(=O)c1c(NC(=O)c2ccc(F)c(C(F)(F)F)c2)sc2c1CC(C)(C)NC2(C)C [Compound 5H, Methyl-2-(4-fluoro-3-(trifluoromethyl)benzamido)-5,5,7,7-tetramethyl-4,5,6,7-tetrahydrothieno[2,3-c]-pyridine3-carboxylate]	3.05 ± 0.47				
COC(=O)c1c(NC(=O)c2ccccc2C(F)(F)F)sc2c1CC(C)(C)NC2(C)C [Compound 5I, Methyl-5,5,7,7-tetramethyl-2-(2-(trifluoromethyl)benzamido)-4,5,6,7-tetrahydrothieno[2,3-c]pyridine-3-carboxylate]	5.5 ± 1.8				
CCCCCCCCCCCCCCCCOP(=O)([O-])OCC[N+](C)(C)C [Miltefosine, miltefosine]					half-life [8]: 150 h
Ethyl-5,5,7,7-tetramethyl-2-(2-(trifluoromethyl)benzamido)-4,5,6,7-tetrahydrothieno[2,3-c]pyridine-3-carboxylate [Compound 5C]					EC50 [1, 9]: 4.73 ± 0.69 µM
